Experimental findings from publication PMC7073023, “Overexpression of ABCB1 Transporter Confers Resistance to mTOR Inhibitor WYE-354 in Cancer Cells” (International Journal of Molecular Sciences, 2020) are described below.

Molecules are shown by their SMILES.

Data set [1] addresses T1, ABCB1 (Homo sapiens, UniProt P08183). As to the kind of experiment: cell-based. More on the design: full length ABCB1 (transfected HEK293); ABCB1 membrane vesicles (ATPase kit). Conditions: read-out: % of the basal activity.
For data set [2], the target named is T1, ABCB1.

T1 sequence (P08183 whole entry): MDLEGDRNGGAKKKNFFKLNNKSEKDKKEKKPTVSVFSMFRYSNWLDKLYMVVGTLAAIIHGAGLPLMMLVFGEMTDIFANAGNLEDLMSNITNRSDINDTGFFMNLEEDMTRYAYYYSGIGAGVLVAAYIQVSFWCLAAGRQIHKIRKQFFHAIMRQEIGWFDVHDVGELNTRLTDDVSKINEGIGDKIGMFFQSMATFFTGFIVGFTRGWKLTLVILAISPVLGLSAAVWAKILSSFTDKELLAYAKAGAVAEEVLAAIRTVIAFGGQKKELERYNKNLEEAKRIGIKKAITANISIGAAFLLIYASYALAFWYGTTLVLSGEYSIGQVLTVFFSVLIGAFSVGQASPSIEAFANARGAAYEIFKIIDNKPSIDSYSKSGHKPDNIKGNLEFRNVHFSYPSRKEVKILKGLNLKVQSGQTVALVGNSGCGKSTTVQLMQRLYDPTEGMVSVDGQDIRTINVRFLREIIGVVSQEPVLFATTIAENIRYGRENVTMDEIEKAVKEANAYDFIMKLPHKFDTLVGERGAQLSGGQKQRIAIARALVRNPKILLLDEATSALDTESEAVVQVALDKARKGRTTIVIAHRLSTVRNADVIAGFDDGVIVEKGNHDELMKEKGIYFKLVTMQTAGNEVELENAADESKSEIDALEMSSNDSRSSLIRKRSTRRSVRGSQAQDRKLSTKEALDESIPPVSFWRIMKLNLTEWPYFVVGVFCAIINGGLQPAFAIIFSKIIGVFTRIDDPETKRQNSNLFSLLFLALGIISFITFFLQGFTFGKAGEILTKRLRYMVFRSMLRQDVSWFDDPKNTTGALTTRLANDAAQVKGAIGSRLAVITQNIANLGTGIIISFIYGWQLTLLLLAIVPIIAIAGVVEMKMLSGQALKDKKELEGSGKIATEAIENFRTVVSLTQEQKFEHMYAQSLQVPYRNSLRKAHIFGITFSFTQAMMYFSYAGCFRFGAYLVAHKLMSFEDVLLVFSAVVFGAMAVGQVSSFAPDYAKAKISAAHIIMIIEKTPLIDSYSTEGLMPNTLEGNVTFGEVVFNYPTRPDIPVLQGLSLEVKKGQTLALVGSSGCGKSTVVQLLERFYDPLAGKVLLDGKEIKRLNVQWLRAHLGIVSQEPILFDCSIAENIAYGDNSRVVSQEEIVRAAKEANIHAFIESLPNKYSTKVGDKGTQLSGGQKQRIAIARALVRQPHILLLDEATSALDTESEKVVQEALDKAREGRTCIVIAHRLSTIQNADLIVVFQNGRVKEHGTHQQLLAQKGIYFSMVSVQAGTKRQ

On to `COC(=O)Nc1ccc(-c2nc(N3CCOCC3)c3cnn(C4CCN(C(=O)OC)CC4)c3n2)cc1` [WYE-354], for which the Emax at ABCB1 [1] turned out to be 141%. Regarding `CC(=O)O[C@H]1C(=O)[C@@]2(C)[C@H]([C@H](OC(=O)c3ccccc3)[C@]3(O)C[C@H](OC(=O)[C@H](O)[C@@H](NC(=O)c4ccccc4)c4ccccc4)C(C)=C1C3(C)C)[C@]1(OC(C)=O)CO[C@@H]1C[C@@H]2O` [paclitaxel], the “[3H]-paclitaxel accumulation in ABCB1-overexpressing and ABCB1-transfected cells” value at ABCB1 [2] is “drug–drug interaction between WYE-354 and paclitaxel, which is a known substrate of ABCB1”.
